From the supplement of paper PMC10307832

Key:
Experiment in all cases: relative viability (nuclei count vs DMSO), 5 days (fraction); higher = more cells survive
A-427 = tested on: A-427
Procedure, shortened: (§1)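 Lung cancer cell lines were pin-tool dosed in 1536-well plates on the day after seeding, with either a lone drug or a fixed anchor-drug dose plus five library-drug doses (not always all listed) in √10 steps. Nuclei were counted on 4× images after 5 days. Relative viability is the ratio of treated-well to vehicle-well nuclei counts, with each value a median of duplicate plates.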

CAL-12T = tested on: CAL-12T
Procedure, shortened: as §1

COR-L 105 = tested on: COR-L 105
Procedure, shortened: as §1

EMC-BAC-2 = tested on: EMC-BAC-2
Procedure, shortened: as §1

HARA = tested on: HARA
Procedure, shortened: as §1

HCC-366 = tested on: HCC-366
Procedure, shortened: as §1

HCC-827 = tested on: HCC-827
Procedure, shortened: as §1

HOP-62 = tested on: HOP-62
Procedure, shortened: as §1

LCLC-103H = tested on: LCLC-103H
Procedure, shortened: as §1

NCI-H1395 = tested on: NCI-H1395
Procedure, shortened: as §1

NCI-H1437 = tested on: NCI-H1437
Procedure, shortened: as §1

NCI-H1755 = tested on: NCI-H1755
Procedure, shortened: as §1

NCI-H1792 = tested on: NCI-H1792
Procedure, shortened: as §1

NCI-H1915 = tested on: NCI-H1915
Procedure, shortened: as §1

NCI-H2009 = tested on: NCI-H2009
Procedure, shortened: as §1

NCI-H2228 = tested on: NCI-H2228
Procedure, shortened: as §1

NCI-H23 = tested on: NCI-H23
Procedure, shortened: as §1

NCI-H460 = tested on: NCI-H460
Procedure, shortened: as §1

NCI-H727 = tested on: NCI-H727
Procedure, shortened: as §1

SK-LU-1 = tested on: SK-LU-1
Procedure, shortened: as §1

SW 1573 = tested on: SW 1573
Procedure, shortened: as §1

COc1cc2nccc(Oc3ccc(NC(=O)Nc4cc(C)on4)c(Cl)c3)c2cc1OC [Tivozanib] + CS(=O)(=O)N1CCN(Cc2cc3nc(-c4cccc5[nH]ncc45)nc(N4CCOCC4)c3s2)CC1 [Pictilisib] (partner 1 µM)
relative viability (A-427; first compound 0.005 µM): 0.656 | relative viability (A-427; first compound 0.01581 µM): 0.746 | relative viability (A-427; first compound 0.05 µM): 0.705 | relative viability (A-427; first compound 0.1581 µM): 0.511 | relative viability (A-427; first compound 0.5 µM): 0.71 | relative viability (CAL-12T; first compound 0.005 µM): 0.212 | relative viability (CAL-12T; first compound 0.01581 µM): 0.445 | relative viability (CAL-12T; first compound 0.05 µM): 0.608 | relative viability (CAL-12T; first compound 0.5 µM): 0.404 | relative viability (COR-L 105; first compound 0.01581 µM): 0.405 | relative viability (COR-L 105; first compound 0.05 µM): 0.431 | relative viability (COR-L 105; first compound 0.1581 µM): 0.347 | relative viability (COR-L 105; first compound 0.5 µM): 0.317 | relative viability (EMC-BAC-2; first compound 0.005 µM): 0.561 | relative viability (EMC-BAC-2; first compound 0.01581 µM): 0.529 | relative viability (EMC-BAC-2; first compound 0.05 µM): 0.554 | relative viability (EMC-BAC-2; first compound 0.1581 µM): 0.389 | relative viability (EMC-BAC-2; first compound 0.5 µM): 0.578 | relative viability (HARA; first compound 0.005 µM): 0.395 | relative viability (HARA; first compound 0.01581 µM): 0.312 | relative viability (HARA; first compound 0.05 µM): 0.485 | relative viability (HARA; first compound 0.1581 µM): 0.309 | relative viability (HARA; first compound 0.5 µM): 0.603 | relative viability (HCC-366; first compound 0.005 µM): 0.126 | relative viability (HCC-366; first compound 0.01581 µM): 0.179 | relative viability (HCC-366; first compound 0.05 µM): 0.103 | relative viability (HCC-366; first compound 0.1581 µM): 0.189 | relative viability (HCC-366; first compound 0.5 µM): 0.175 | relative viability (HCC-827; first compound 0.005 µM): 0.864 | relative viability (HCC-827; first compound 0.01581 µM): 0.924 | relative viability (HCC-827; first compound 0.05 µM): 1.01 | relative viability (HCC-827; first compound 0.1581 µM): 1.24 | relative viability (HCC-827; first compound 0.5 µM): 0.982 | relative viability (HOP-62; first compound 0.005 µM): 0.579 | relative viability (HOP-62; first compound 0.01581 µM): 0.744 | relative viability (HOP-62; first compound 0.05 µM): 0.708 | relative viability (HOP-62; first compound 0.1581 µM): 0.368 | relative viability (HOP-62; first compound 0.5 µM): 0.649 | relative viability (LCLC-103H; first compound 0.005 µM): 0.58 | relative viability (LCLC-103H; first compound 0.01581 µM): 0.735 | relative viability (LCLC-103H; first compound 0.05 µM): 0.604 | relative viability (LCLC-103H; first compound 0.1581 µM): 0.602 | relative viability (LCLC-103H; first compound 0.5 µM): 0.591 | relative viability (NCI-H1395; first compound 0.005 µM): 0.671 | relative viability (NCI-H1395; first compound 0.01581 µM): 0.746 | relative viability (NCI-H1395; first compound 0.05 µM): 0.769 | relative viability (NCI-H1395; first compound 0.1581 µM): 0.627 | relative viability (NCI-H1395; first compound 0.5 µM): 0.678 | relative viability (NCI-H1437; first compound 0.005 µM): 0.347 | relative viability (NCI-H1437; first compound 0.01581 µM): 0.463 | relative viability (NCI-H1437; first compound 0.05 µM): 0.401 | relative viability (NCI-H1437; first compound 0.1581 µM): 0.177 | relative viability (NCI-H1437; first compound 0.5 µM): 0.52 | relative viability (NCI-H1755; first compound 0.005 µM): 0.365 | relative viability (NCI-H1755; first compound 0.01581 µM): 0.402 | relative viability (NCI-H1755; first compound 0.05 µM): 0.453 | relative viability (NCI-H1755; first compound 0.1581 µM): 0.405 | relative viability (NCI-H1755; first compound 0.5 µM): 0.396 | relative viability (NCI-H1792; first compound 0.005 µM): 0.248 | relative viability (NCI-H1792; first compound 0.01581 µM): 0.27 | relative viability (NCI-H1792; first compound 0.05 µM): 0.289 | relative viability (NCI-H1792; first compound 0.1581 µM): 0.283 | relative viability (NCI-H1792; first compound 0.5 µM): 0.274 | relative viability (NCI-H1915; first compound 0.005 µM): 0.936 | relative viability (NCI-H1915; first compound 0.01581 µM): 0.995 | relative viability (NCI-H1915; first compound 0.05 µM): 0.901 | relative viability (NCI-H1915; first compound 0.1581 µM): 0.485 | relative viability (NCI-H1915; first compound 0.5 µM): 0.742 | relative viability (NCI-H2009; first compound 0.005 µM): 0.811 | relative viability (NCI-H2009; first compound 0.01581 µM): 0.776 | relative viability (NCI-H2009; first compound 0.05 µM): 0.833 | relative viability (NCI-H2009; first compound 0.1581 µM): 0.633 | relative viability (NCI-H2009; first compound 0.5 µM): 0.663 | relative viability (NCI-H2228; first compound 0.005 µM): 0.402 | relative viability (NCI-H2228; first compound 0.01581 µM): 0.421 | relative viability (NCI-H2228; first compound 0.05 µM): 0.528 | relative viability (NCI-H2228; first compound 0.1581 µM): 0.297 | relative viability (NCI-H2228; first compound 0.5 µM): 0.514 | relative viability (NCI-H23; first compound 0.005 µM): 0.443 | relative viability (NCI-H23; first compound 0.01581 µM): 0.471 | relative viability (NCI-H23; first compound 0.05 µM): 0.409 | relative viability (NCI-H23; first compound 0.1581 µM): 0.319 | relative viability (NCI-H23; first compound 0.5 µM): 0.49 | relative viability (NCI-H460; first compound 0.005 µM): 0.337 | relative viability (NCI-H460; first compound 0.01581 µM): 0.296 | relative viability (NCI-H460; first compound 0.05 µM): 0.449 | relative viability (NCI-H460; first compound 0.1581 µM): 0.253 | relative viability (NCI-H460; first compound 0.5 µM): 0.36 | relative viability (NCI-H727; first compound 0.005 µM): 0.349 | relative viability (NCI-H727; first compound 0.01581 µM): 0.56 | relative viability (NCI-H727; first compound 0.05 µM): 0.351 | relative viability (NCI-H727; first compound 0.5 µM): 0.398 | relative viability (SK-LU-1; first compound 0.005 µM): 0.618 | relative viability (SK-LU-1; first compound 0.01581 µM): 0.465 | relative viability (SK-LU-1; first compound 0.05 µM): 0.483 | relative viability (SK-LU-1; first compound 0.1581 µM): 0.336 | relative viability (SK-LU-1; first compound 0.5 µM): 0.55 | relative viability (SW 1573; first compound 0.005 µM): 0.448 | relative viability (SW 1573; first compound 0.01581 µM): 0.479 | relative viability (SW 1573; first compound 0.05 µM): 0.505 | relative viability (SW 1573; first compound 0.1581 µM): 0.346 | relative viability (SW 1573; first compound 0.5 µM): 0.406
